Measured values published in patent US20220204512A1, “SUBSTITUTED FUSED BICYCLIC DERIVATIVE, PREPARATION METHOD THEREFOR, AND APPLICATION THEREOF IN MEDICINES” (Jiangsu Hengrui Medicine Co., Ltd., priority 2019, published 2022).

Key:
[1] = Pharmacokinetics assay in mice; type: in vivo; details: female, mouse, po, C57 mice, intragastric, 2 mg/kg, plasma; for Vd/F: read-out: Apparent distribution volume Vz/F; for AUC: read-out: Area under curve AUC; for CL/F: read-out: Clearance CLz/F; for half-life: read-out: Half-life T1/2 (converted); for Cmax: read-out: Plasma concentration Cmax; for MRT: read-out: Residence time MRT
Method: Mice were used as test animals. The drug concentration in plasma at different time points was determined by LC/MS/MS method after administration of the compounds 1-P2, 2-P2, 4-P2, 6-P2, 9-P2, 10-P2 and 11-P2. The pharmacokinetic behavior of the compounds of the present disclosure was studied and evaluated in mice.
Sixty-three C57 mice (female, equally divided into seven groups) were purchased from Shanghai Jiesijie Laboratory Animal Co., LTD. (Certificate No.: SCXK(Shanghai)2013-0006).
A certain amount of the test compound was weighed, dissolved in 5% of DMSO by volume and 5% of tween 80, followed by the additon of 90% of normal saline to prepare a 0.1 mg/mL colorless, clear and transparent solution.
After an overnight fast, C57 mice were intragastrically administered the test compound at an administration dose of 2 mg/kg and an administration volume of 0.2 ml/10 g.
The mice were intragastrically administered the test compounds. 0.1 ml of blood was taken before the administration and at 0.25, 0.5, 1.0, 2.0, 4.0, 6.0, 8.0, 11.0 and 24.0 hours after the administration. The samples were stored in heparinized tubes, and centrifuged for 10 minutes at 3500 rpm to separate the blood plasma. The plasma samples were stored at −20° C.
The content of the test compound in the plasma of mice after intragastrical administration of the test compound at different concentrations was determined: 25 μL of […] plasma at each time point after the administration was taken, followed by the addition of 50 μL of the internal standard camptothecin solution (100ng/mL) and 200 μL of acetonitrile. The resulting solution was vortex-mixed for 5 minutes, and centrifuged for 10 minutes (4000 rpm). 4 μL of the supernatant was taken from the plasma samples for LC/MS/MS analysis.

Colo205 cells = experiment: In vitro proliferation inhibition test on Colo205 tumor cells (CellTiter-Glo); type: cell-based; details: Homo sapiens, COLO 205, 72 h; Colo205 cell proliferation, 3 days of culture, CTG
Method: The purpose of this experiment is to test the inhibitory activity of the compounds of the present disclosure on the proliferation of Colo205 cells (CCL-222, ATCC) in vitro. The cells were treated in vitro with different concentrations of the compounds. After 3 days of culture, the cell proliferation was tested with CTG (CellTiter-Glo® Luminescent Cell Viability Assay, Promega, Catalog No. G7573) reagent, and the in vitro activity of the compounds was evaluated according to the ICso value.
In the following, the in vitro proliferation inhibition test method of Colo205 cells is taken as an example to illustrate the method for testing the in vitro proliferation inhibitory activity of the compounds of the present disclosure on tumor cells. This method is also applicable to, but not limited to, the in vitro proliferation inhibitory activity test on other tumor cells.
Colo205 cells were digested, centrifuged and then resuspended. The single cell suspension was mixed well, and the density of viable cells was adjusted to 5.0×10^4 cells/ml with cell culture medium (RPMI1640+2% FBS), and 95 μL/well was added to a 96-well cell culture plate. Only 100 μL medium was added to the peripheral wells of the 96-well plate. The culture plate was incubated in an incubator for 24 hours (37° C., 5% CO2).
The compound was dissolved in DMSO (dimethyl sulfoxide, Shanghai Titan Scientific Co., Ltd.) and prepared as a stock solution with an initial concentration of 20 mM. The initial concentration of the small molecule compound was 2 mM, and then 4-fold diluted into 9 points, and the 10th point was DMSO. Another 96-well plate was taken, and 90 μL of cell culture medium (RPMI1640+2% FBS) was added to each well. Then 10 μL of different concentrations of the test sample was added to each well. The mixture was mixed well, and then 5μL of different concentrations of the test sample was added to the cell culture plate. Each sample has two duplicate holes. The culture plate was incubated in the incubator for 3 days (37° C., 5% CO2). The 96-well cell culture plate was taken out. 50 μL solution of CTG was added to each well, and the plate was incubated for 10 minutes at room temperature. In a microplate reader (BMG labtech, PHERAstar FS), chemiluminescence was measured with the microplate reader.
(§1) Microsoft Excel, Graphpad Prism 5 was used to process and analyze the data.

ERK1 = biological target: T1, ERK1 (Homo sapiens, UniProt P27361); experiment: ERK1 enzyme activity test (ADP-Glo Kinase Assay); type: biochemical; details: ADP-Glo chemiluminescence
T1 construct: purchased R&D 1879-KS-010
T1 sequence (P27361 whole entry): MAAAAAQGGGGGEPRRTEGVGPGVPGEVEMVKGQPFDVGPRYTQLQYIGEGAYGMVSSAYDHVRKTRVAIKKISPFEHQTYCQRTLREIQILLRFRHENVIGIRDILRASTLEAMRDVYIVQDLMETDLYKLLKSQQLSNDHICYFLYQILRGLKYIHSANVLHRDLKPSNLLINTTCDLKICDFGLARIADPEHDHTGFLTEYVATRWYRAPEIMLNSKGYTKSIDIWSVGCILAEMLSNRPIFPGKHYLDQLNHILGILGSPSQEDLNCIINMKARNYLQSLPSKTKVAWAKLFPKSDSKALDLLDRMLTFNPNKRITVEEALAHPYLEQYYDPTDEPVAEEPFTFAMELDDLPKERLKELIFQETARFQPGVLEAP
Method: (§2) The purpose of this experiment is to detect the inhibitory ability of the compounds of the present disclosure on the ERK1 enzyme activity and to evaluate the in vitro activity of the compounds based on the IC50. The ADP-Glo™ Kinase Assay Kit was used in this experiment. The substrate was phosphorylated under the action of the enzyme and ADP was produced at the same time. The ADP-Glo reagent was added to remove the unreacted ATP in the reaction system, and the ADP produced by the reaction was detected with kinase detection reagent. In the presence of the compound, the inhibition rate of the compound was calculated by measuring the signal value.
Preparation of Enzyme and substrate: ERK1 (1879-KS-010, R&D) and substrate (AS-61777, anaspec) were prepared to 0.75 ng/p1 and 100 μM respectively in a buffer, and then the enzyme solution and the substrate solution were prepared into a mixed solution at a volume ratio of 2:1 for later use. ATP was diluted to 300 μM with buffer. The compound was dissolved in DMSO (dimethyl sulfoxide, Shanghai Titan Scientific Co., Ltd.) to prepare a stock solution with an initial concentration of 20 mM, and then Bravo was used to prepare the compound. Finally, 3 μL of a mixed solution of enzyme and substrate, and 1 μL of different concentrations of the compound (the initial concentration was 50 μM, 4-fold dilution) were added to each well of the 384-well plate, and the plate was incubated at 30° C. for 10 minutes, and finally 1 μL of 300 μM ATP solution was added to each well, and the plate was incubated at 30° C. for 2 hours. Then 5 μL of ADP-Glo was added, and the plate was incubated at 30° C. for 40 minutes. Then 10 μL of kinase detection buffer was added, and the plate was incubated at 30° C. for 40 minutes. The 384-well plate was taken out and placed in a microplate reader (BMG labtech, PHERAstar FS), and the chemiluminescence was measured by a microplate reader.
as §1

ERK2 = biological target: T2, ERK2 (Homo sapiens, UniProt P28482); experiment: ERK2 enzyme activity test (ADP-Glo Kinase Assay); type: biochemical; details: ADP-Glo chemiluminescence
T2 construct: purchased R&D 1879-KS-010
T2 sequence (P28482 2-360 limits assumed): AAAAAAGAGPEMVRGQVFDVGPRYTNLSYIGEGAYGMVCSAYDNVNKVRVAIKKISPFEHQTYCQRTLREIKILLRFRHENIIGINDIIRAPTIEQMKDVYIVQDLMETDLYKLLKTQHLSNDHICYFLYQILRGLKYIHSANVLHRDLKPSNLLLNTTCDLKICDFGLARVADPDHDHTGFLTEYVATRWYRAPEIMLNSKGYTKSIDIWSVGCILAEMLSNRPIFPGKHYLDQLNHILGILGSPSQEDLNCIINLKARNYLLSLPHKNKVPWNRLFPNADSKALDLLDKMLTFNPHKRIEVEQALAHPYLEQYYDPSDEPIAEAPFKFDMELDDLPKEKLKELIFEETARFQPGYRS
Method: as §2, with “the ERK2” for “the ERK1”, “enzyme activity,” for “enzyme activity”
Preparation of enzyme and substrate: ERK2 (1879-KS-010, R&D) and substrate (custom peptide, Gill Biochemical) were prepared to 0.75 ng/ml and 1500 μM in a buffer (40 mM Tris, 20 mM MgCl2, 0.1 mg/ml BSA, 50 μM DTT), and then the enzyme solution and the substrate solution were prepared into a mixed solution at a volume ratio of 2:1 for later use. ATP was diluted to 500 μM with buffer. The compound was dissolved in DMSO (dimethyl sulfoxide, Shanghai Titan Scientific Co., Ltd.) to prepare a stock solution with an initial concentration of 20 mM, and then Bravo was used to prepare the compound. Finally, 3 μL of a mixed solution of enzyme and substrate, and 1 μL substrate of different concentrations of the compound (the initial concentration is 50 μM, 4-fold dilution) were added to each well of the 384-well plate, and the plate was incubated at 30° C. for 10 minutes, and finally 1 μL 500 μM ATP solution was added to each well, and the plate was incubated at 30° C. for 2 hours. Then 5 μL of ADP-Glo was added, and the plate was incubated at 30° C. for 40 minutes. Then 10 μL of kinase detection buffer was added, and the plate was incubated at 30° C. for 40 minutes. The 384-well plate was taken out and placed in a microplate reader (BMG labtech, PHERAstar FS), and the chemiluminescence was measured by a microplate reader.
as §1

Vd/F [1] [L/kg] | AUC [1] [ng·h/mL] | CL/F [1] [mL/min/kg] | half-life [1] [h] | Cmax [1] [ng/mL] | MRT [1] [h] | IC50 (Colo205 cells) [nM] | IC50 (ERK1) [nM] | IC50 (ERK2) [nM] | Structure (SMILES)
5.94 | 994 | 33.5 | 2.05 | 867 | 1.08 | 15 | 4.6 | 1.7 | COc1cc(F)cc([C@@H](CO)NC(=O)[C@@H](C)N2CCc3cc(-c4nc(NC5CCOCC5)ncc4Cl)cn3C2=O)c1 [Example 2-P2, (R)-2-(6-(5-Chloro-2-((tetrahydro-2H-pyran-4-yl)amino)pyrimidin-4-yl)-1-oxo-3,4-dihydropyrrolo[1,2-c]pyrimidin-2(1H)-yl)-N-((S)-1-(3-fluoro-5-methoxyphenyl)-2-hydroxyethyl)propanamide]
3.29 | 936 | 35.5 | 1.07 | 905 | 1.07 | 10 | 3.8 | 1 | COc1cc(F)cc([C@@H](CO)NC(=O)[C@@H](C)N2CCn3cc(-c4nc(NC5CCOCC5)ncc4Cl)cc3C2=O)c1 [Example 4-P2, (R)-2-(7-(5-Chloro-2-((tetrahydro-2H-pyran-4-yl)amino)pyrimidin-4-yl)-1-oxo-3,4-dihydropyrrolo[1,2-a]pyrazin-2(1H)-yl)-N-((S)-1-(3-fluoro-5-methoxyphenyl)-2-hydroxyethyl)propanamide]
3.14 | 1330 | 25.1 | 1.44 | 1410 | 0.838 | 17.7 | 9 | 1.9 | Cc1cccc([C@@H](CO)NC(=O)[C@@H](C)N2CCn3cc(-c4nc(NC5CCOCC5)ncc4Cl)cc3C2=O)c1 [Example 9-P2, (R)-2-(7-(5-Chloro-2-((tetrahydro-2H-pyran-4-yl)amino)pyrimidin-4-yl)-1-oxo-3,4-dihydropyrrolo[1,2-a]pyrazin-2(1H)-yl)-N-((S)-2-hydroxy-1-(m-tolyl)ethyl)propanamide]
3.51 | 784 | 42.4 | 0.957 | 813 | 1.15 | 26 | 17 | 2.1 | Cc1cccc([C@@H](CO)NC(=O)[C@@H](C)N2CCc3cc(-c4nc(NC5CCOCC5)ncc4Cl)cn3C2=O)c1 [Example 11-P2, (R)-2-(6-(5-Chloro-2-((tetrahydro-2H-pyran-4-yl)amino)pyrimidin-4-yl)-1-oxo-3,4-dihydropyrrolo[1,2-c]pyrimidin-2(1H)-yl)-N-((S)-2-hydroxy-1-(m-tolyl)ethyl)propanamide]
